PubChem BioAssay (NCI)
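Grown in 96-well plates, cells were treated for 48 hours with each compound at five concentrations. Insufficient inhibition: endpoint recorded as highest concentration tested. The concentration for full growth arrest is given as TGI.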

Assays:
Assay in all cases: inhibition of tumour cell growth, NCI panel, 48 h
[1] = system: 786-0 renal
[2] = system: A498 renal
[3] = system: A549 NSCLC
[4] = system: ACHN renal
[5] = system: CAKI-1 renal
[6] = system: CCRF-CEM leukemia
[7] = system: COLO 205 colon
[8] = system: DMS 114 small cell lung
[9] = system: DMS 273 small cell lung
[10] = system: EKVX NSCLC
[11] = system: HCC-2998 colon
[12] = system: HCT-116 colon
[13] = system: HCT-15 colon
[14] = system: HL-60(TB) leukemia
[15] = system: HOP-18 NSCLC
[16] = system: HOP-62 NSCLC
[17] = system: HOP-92 NSCLC
[18] = system: HT29 colon
[19] = system: IGROV1 ovarian
[20] = system: K-562 leukemia
[21] = system: KM12 colon
[22] = system: KM20L2 colon
[23] = system: LOX IMVI melanoma
[24] = system: LXFL 529 NSCLC
[25] = system: M14 melanoma
[26] = system: M19-MEL melanoma
[27] = system: MALME-3M melanoma
[28] = system: MOLT-4 leukemia
[29] = system: NCI-H226 lung
[30] = system: NCI-H23 lung
[31] = system: NCI-H460 lung
[32] = system: OVCAR-3 ovarian
[33] = system: OVCAR-4 ovarian
[34] = system: OVCAR-5 ovarian
[35] = system: OVCAR-8 ovarian
[36] = system: RPMI-8226 leukemia
[37] = system: RXF 393 renal
[38] = system: SF-268 CNS
[39] = system: SF-295 CNS
[40] = system: SF-539 CNS
[41] = system: SK-MEL-2 melanoma
[42] = system: SK-MEL-28 melanoma
[43] = system: SK-MEL-5 melanoma
[44] = system: SK-OV-3 ovarian
[45] = system: SN12C renal
[46] = system: SNB-19 CNS
[47] = system: SNB-75 CNS
[48] = system: SNB-78 CNS
[49] = system: SR leukemia
[50] = system: SW-620 colon
[51] = system: TK-10 renal
[52] = system: U251 CNS
[53] = system: UACC-257 melanoma
[54] = system: UACC-62 melanoma
[55] = system: UO-31 renal
[56] = system: DLD-1 colon

CCc1cc(Cc2cc(Cl)c(NC(=O)C(=O)C3NC(=O)NC3=O)c(CC)c2)cc(Cl)c1NC(=O)C(=O)C1NC(=O)NC1=O (stereo not given)
TGI [1]: > 100 µM
TGI [2]: > 100 µM
TGI [3]: > 100 µM
TGI [4]: > 100 µM
TGI [5]: > 100 µM
TGI [6]: > 100 µM
TGI [7]: > 100 µM
TGI [8]: 83.9 µM
TGI [9]: 41.3 µM
TGI [10]: > 100 µM
TGI [11]: > 100 µM
TGI [12]: 94.8 µM
TGI [13]: 35.6 µM
TGI [14]: > 100 µM
TGI [15]: > 100 µM
TGI [16]: > 100 µM
TGI [17]: > 100 µM
TGI [18]: 54 µM
TGI [19]: > 100 µM
TGI [20]: > 100 µM
TGI [21]: > 100 µM
TGI [22]: > 100 µM
TGI [23]: > 100 µM
TGI [24]: > 100 µM
TGI [25]: > 100 µM
TGI [26]: > 100 µM
TGI [27]: > 100 µM
TGI [28]: > 100 µM
TGI [29]: > 100 µM
TGI [30]: 72.6 µM
TGI [31]: > 100 µM
TGI [32]: > 100 µM
TGI [33]: > 100 µM
TGI [34]: > 100 µM
TGI [35]: 58.6 µM
TGI [36]: > 100 µM
TGI [37]: 59.9 µM
TGI [38]: > 100 µM
TGI [39]: > 100 µM
TGI [40]: > 100 µM
TGI [41]: > 100 µM
TGI [42]: > 100 µM
TGI [43]: > 100 µM
TGI [44]: > 100 µM
TGI [45]: > 100 µM
TGI [46]: > 100 µM
TGI [47]: 90.7 µM
TGI [48]: > 100 µM
TGI [49]: > 100 µM
TGI [50]: 24.1 µM
TGI [51]: > 100 µM
TGI [52]: 40.1 µM
TGI [53]: > 100 µM
TGI [54]: > 100 µM
TGI [55]: > 100 µM

CCCCCC[N+](C)(C)Cc1ccc(C[N+](C)(C)CCCCCC)cc1
TGI [1]: 18.1 µM
TGI [2]: 38.9 µM
TGI [3]: 12.8 µM
TGI [4]: 24.8 µM
TGI [5]: 14.6 µM
TGI [56]: 26.5 µM
TGI [9]: 3.73 µM
TGI [10]: 27.7 µM
TGI [11]: 27.9 µM
TGI [12]: 12.8 µM
TGI [13]: 23.7 µM
TGI [15]: 21.8 µM
TGI [16]: 8.23 µM
TGI [17]: 7.17 µM
TGI [18]: 16 µM
TGI [19]: 5.38 µM
TGI [20]: 5.65 µM
TGI [22]: 34.4 µM
TGI [24]: 15.4 µM
TGI [25]: 9.34 µM
TGI [27]: 97.8 µM
TGI [29]: 20.4 µM
TGI [31]: 6.03 µM
TGI [32]: 14.4 µM
TGI [33]: > 100 µM
TGI [34]: 24.7 µM
TGI [35]: 7.37 µM
TGI [36]: 9.96 µM
TGI [38]: > 100 µM
TGI [39]: 10.5 µM
TGI [41]: 5.15 µM
TGI [42]: 23.6 µM
TGI [43]: 28.5 µM
TGI [44]: 33.4 µM
TGI [45]: 12.7 µM
TGI [46]: 67.4 µM
TGI [47]: 10.8 µM
TGI [48]: 5.15 µM
TGI [49]: 5.08 µM
TGI [50]: 26.6 µM
TGI [51]: 24.3 µM
TGI [52]: 7.28 µM
TGI [53]: 35.5 µM
TGI [54]: 29.7 µM
TGI [55]: 29.8 µM
